From ChEMBL document CHEMBL5042519, “Design and synthesis of marine sesterterpene analogues as novel estrogen receptor α degraders for breast cancer treatment” (Eur J Med Chem, 2022)
Active and inactive are the calls of the source. No cut-off for these calls is given here.

Experiments:
MCF7 [1] = experiment: Antiproliferative activity against human MCF7 cells assessed as reduction in cell viability after 48 hrs by MTT assay; assay type: functional, cell-based; settings: MCF7, 48 h
[2] = Resistance index, ratio of IC50 for antiproliferative activity against human MCF7/ADR cells to IC50 for antiproliferative activity against human MCF7 cells; assay type: functional
MDA-MB-231 = experiment: Antiproliferative activity against human MDA-MB-231 cells assessed as reduction in cell viability after 48 hrs by MTT assay; settings: MDA-MB-231, 48 h
[3] = target: T1, Estrogen receptor (Homo sapiens) (UniProt P03372); experiment: Induction of ERalpha degradation in human MCF7 cells assessed as decrease in ERalpha protein expression at 1 uM incubated for 24 hrs by Western blot analysis; assay type: cell-based
T1 sequence (whole entry): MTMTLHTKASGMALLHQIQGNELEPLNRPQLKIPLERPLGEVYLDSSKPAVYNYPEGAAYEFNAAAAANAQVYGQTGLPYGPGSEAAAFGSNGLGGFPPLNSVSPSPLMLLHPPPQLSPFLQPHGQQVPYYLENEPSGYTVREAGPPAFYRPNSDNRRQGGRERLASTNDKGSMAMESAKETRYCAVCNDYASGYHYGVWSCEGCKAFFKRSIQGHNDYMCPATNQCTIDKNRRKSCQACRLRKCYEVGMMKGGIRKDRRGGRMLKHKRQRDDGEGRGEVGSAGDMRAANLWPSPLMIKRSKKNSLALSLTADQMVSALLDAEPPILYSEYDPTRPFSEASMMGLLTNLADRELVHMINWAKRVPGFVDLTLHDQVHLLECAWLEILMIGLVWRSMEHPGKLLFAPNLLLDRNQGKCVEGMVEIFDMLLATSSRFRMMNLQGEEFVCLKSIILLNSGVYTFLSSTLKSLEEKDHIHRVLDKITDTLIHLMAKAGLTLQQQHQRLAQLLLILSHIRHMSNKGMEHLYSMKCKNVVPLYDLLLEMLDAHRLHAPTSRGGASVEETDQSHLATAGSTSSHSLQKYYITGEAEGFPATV

[4] = target: T1, Estrogen receptor (Homo sapiens); experiment: Induction of ERalpha degradation in human MCF7 cells assessed as decrease in ERalpha protein expression at 3 uM measured upto 24 hrs by Western blot analysis; assay type: cell-based; settings: time hrs <=24, TDE = time-dependent effect
[5] = target: T1, Estrogen receptor (Homo sapiens); experiment: Induction of ERalpha degradation in human MCF7 cells assessed as ERalpha level at 3 uM measured after 24 hrs in presence of proteasome inhibitor MG132 by Western blot analysis; assay type: cell-based
MCF7 [6] = experiment: Inhibition of colony formation in human MCF7 cells at 0.5 to 2 uM measured after 9 days by crystal violet staining based assay; assay type: functional, cell-based; settings: dose 0.5-2 µM, time 9.0 day
MCF7 [7] = experiment: Inhibition of colony formation in human MCF7 cells at 2 uM measured after 9 days by crystal violet staining based assay relative to control; assay type: functional, cell-based; settings: time 9.0 day
MCF7 [8] = experiment: Induction of apoptosis in human MCF7 cells assessed as early apoptotic cells at 0.5 uM incubated for 24 hrs by annexin-V and PI staining based flow cytometry analysis relative to control; assay type: functional
MCF7 [9] = experiment: Induction of ROS generation in human MCF7 cells assessed as increase in intracellular ROS level measured after 24 hrs preincubated with NAC by DCFH-DA staining based flow cytometry method; assay type: functional, cell-based
MCF7 [10] = experiment: Induction of mitochondrial membrane potential loss in human MCF7 cells measured after 24 hrs by JC-1 staining based flow cytometry; assay type: functional, cell-based
MCF7 [11] = experiment: Induction of mitochondrial membrane potential loss in human MCF7 cells at 2 uM measured after 24 hrs by JC-1 staining based flow cytometry; assay type: functional, cell-based
MCF7 [12] = experiment: Induction of apoptosis in human MCF7 cells assessed as increase in Bax protein level at 0.5 to 3 uM and measured after 24 hrs Western blot analysis relative to control; assay type: functional, cell-based; settings: dose 0.5-3 µM
MCF7 [13] = experiment: Induction of apoptosis in human MCF7 cells assessed as decrease in Bcl2 protein level at 0.5 to 3 uM and measured after 24 hrs Western blot analysis relative to control; assay type: functional, cell-based; settings: dose 0.5-3 µM
MCF7 [14] = experiment: Cell cycle arrest in human MCF7 cells assessed as accumulation at G1 phase at 2 uM measured after 24 hrs by propidium iodide staining based flow cytometry (reference value: 73.45 %); assay type: functional
MCF7 [15] = experiment: Cell cycle arrest in human MCF7 cells assessed as decrease in G2/M phase accumulation at 0.5 to 2 uM and measured after 24 hrs by propidium iodide staining based flow cytometry relative to control; assay type: functional; settings: dose 0.5-2 µM
MCF7 [16] = experiment: Cell cycle arrest in human MCF7 cells assessed as reduction in cyclin D1 expression at 0.5 to 3 uM and measured after 24 hrs by Western blot analysis; assay type: functional, cell-based; settings: dose 0.5-3 µM
[17] = Metabolic stability in rat liver microsomes assessed as assessed as intrinsic clearance incubated for 60 mins in presence of NADPH by UPLC-MS analysis; assay type: ADME, Microsome; settings: read-out: CLH
[18] = target: T1, Estrogen receptor (Homo sapiens); experiment: Induction of ERalpha degradation in human MCF7 cells assessed as ERalpha level at 3 uM measured after 24 hrs in presence of HyT by Western blot analysis; assay type: cell-based
[19] = target: T1, Estrogen receptor (Homo sapiens); experiment: Induction of ERalpha degradation in human MCF7 cells assessed as ERalpha level at 3 uM measured after 24 hrs in presence of chloroquine by Western blot analysis; assay type: cell-based
MCF7 [20] = experiment: Cell cycle arrest in human MCF7 cells assessed as accumulation at G1 phase at 0.5 uM measured after 24 hrs by propidium iodide staining based flow cytometry (reference value: 73.45 %); assay type: functional

CC1=CC(=O)[C@H]2/C(C=O)=C\C[C@H]3[C@@H]([C@@H](C)/C=C\C=C/C(=O)OCCOCCOCCOC(=O)CC45CC6CC(CC(C6)C4)C5)CC[C@]3(C)C[C@H]12
IC50 (MCF7 [1]): 410 nM | Ratio IC50 [2]: 1.17 | IC50 (MDA-MB-231): 310 nM | Activity [3]: Active | Activity [4]: Tde | Activity [5]: inactive | inhibition (MCF7 [6]): Active | inhibition (MCF7 [7]): Active | Activity (MCF7 [8]): 6.9% | Activity (MCF7 [9]): inactive | Activity (MCF7 [10]): Active | Activity (MCF7 [11]): Active | Activity (MCF7 [12]): Active | Activity (MCF7 [13]): Active | Activity (MCF7 [14]): 87.85% | Activity (MCF7 [15]): Active | Activity (MCF7 [16]): Dose-Dependent Effect | microsomal CLint [17]: 17.8 µL/min/mg | Activity [18]: Active | Activity [19]: Active | Activity (MCF7 [20]): 74.77%
